Columns and labels:
[1] = molecular target: T1, BCDIN3D (Homo sapiens, UniProt Q7Z5W3); test: BCDIN3D InCellPulse thermal stability assay in transfected A549 cells; format: cell-based; conditions: heat shock 58° C. 15 min
T1 sequence (Q7Z5W3 1-292): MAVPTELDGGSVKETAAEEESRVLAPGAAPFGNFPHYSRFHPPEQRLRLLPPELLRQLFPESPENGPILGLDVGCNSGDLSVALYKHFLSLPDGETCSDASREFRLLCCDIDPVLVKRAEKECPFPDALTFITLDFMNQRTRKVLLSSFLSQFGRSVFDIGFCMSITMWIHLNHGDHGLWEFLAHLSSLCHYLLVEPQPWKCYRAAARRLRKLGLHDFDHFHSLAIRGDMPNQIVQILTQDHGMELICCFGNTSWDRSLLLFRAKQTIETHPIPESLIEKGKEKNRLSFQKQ
Procedure, shortened: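 Thermal stabilisation read-out: after a 15 min 58 °C heat shock, ePL-tagged BCDIN3D in transiently transfected A549 cells (1500/well) was quantified by enzyme-fragment complementation luminescence. Compounds were pre-incubated with cells 1 h at 37 °C, 0.6% DMSO final.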

[2] = molecular target: T1, BCDIN3D; test: BCDIN3D IC50 RFMS (RapidFire) assay with mini-helix; format: biochemical; conditions: 25 nM enzyme
Procedure, shortened: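 SAH formation was measured by RapidFire mass spectrometry with D4- and 13C10-SAH internal standards after TCA quench. Substrates 6 μM SAM and 0.2 μM mini-helix reacted 1 h at 37 °C with 25 nM enzyme, which had been preincubated 10 min with compound (1% DMSO) in Tris pH 8.0 buffer with DTT, EDTA, BSA.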

[3] = transiently transfected A549 cells
[4] = mini-helix substrate 0.2 μM, SAM 6 μM
[5] = A549 cells transiently transfected with ePL-BCDIN3D, 1 h pre-incubation
[6] = mini-helix 0.2 μM and SAM 6 μM as substrates, 1 hr at 37° C.

SMILES | IC50 [1, 3] | IC50 [2, 4] | IC50 [1, 5] | IC50 [2, 6]
Cn1ncc2c(Nc3ccc(C(F)(F)F)cc3)nc(NCC3COCCN3)nc21 (stereo not drawn) [Compound 3.16, 1-methyl-N6-[(morpholin-3-yl)methyl]-N4-[4-(trifluoromethyl)phenyl]-1H-pyrazolo[3,4-d]pyrimidine-4,6-diamine] | 60000 nM | 9920 nM |  | 
Cn1ncc2c(Nc3ccc(C(F)(F)F)cc3)nc(NCC3(N)CCCCC3)nc21 [Compound 1.32, N6-[(1-aminocyclohexyl)methyl]-1-methyl-N4-[4-(trifluoromethyl)phenyl]pyrazolo[3,4-d]pyrimidine-4,6-diamine] |  |  | 234 nM | 77.9 nM
Cn1ncc2c(Nc3ccccc3)nc(NCC3(N)CC3)nc21 [Compound 2.11, 6-N-[(1-aminocyclopropyl)methyl]-1-methyl-4-N-phenylpyrazolo[3,4-d]pyrimidine-4,6-diamine] | 2890 nM | 490 nM |  | 
Cn1ncc2c(NCC3CC3(F)F)nc(NC[C@H](N)c3ccccc3)nc21 (stereo partly drawn) [Compound 4.61, N6-[(2R)-2-amino-2-phenyl-ethyl]-N4-[(2,2-difluorocyclopropyl)methyl]-1-methyl-pyrazolo[3,4-d]pyrimidine-4,6-diamine] | 378 nM | 266 nM |  | 
CNc1nc(NCC(C)(N)c2ccccc2)nc2c1cnn2C (stereo not drawn) [Compound 4.39, 6-N-(2-amino-2-phenylpropyl)-4-N,1-dimethylpyrazolo[3,4-d]pyrimidine-4,6-diamine] | 17100 nM | 9170 nM |  | 
Cn1ncc2c(NC(C)(C)C)nc(NCC(N)c3cccc(Br)c3)nc21 (stereo not drawn) [Compound 5.18, N6-[2-amino-2-(3-bromophenyl)ethyl]-N4-tert-butyl-1-methyl-pyrazolo[3,4-d]pyrimidine-4,6-diamine] | 27.8 nM | 47 nM |  | 
Cn1ncc2c(NC34CC(F)(C3)C4)nc(NCC3(N)CC3)nc21 [Compound 2.43, N6-[(1-aminocyclopropyl)methyl]-N4-{3-fluorobicyclo[1.1.1]pentan-1-yl}-1-methyl-1H-pyrazolo[3,4-d]pyrimidine-4,6-diamine] | 5940 nM | 2790 nM |  | 
Cn1ncc2c(NCC3CCC3)nc(NC[C@H](N)c3ccccc3)nc21 [Compound 4.105, N6-[(2R)-2-amino-2-phenyl-ethyl]-N4-(cyclobutylmethyl)-1-methyl-pyrazolo[3,4-d]pyrimidine-4,6-diamine] | 144 nM | 74 nM |  | 
Cn1ncc2c(Nc3cccc(C(F)(F)F)c3)nc(NCC3(N)CC3)nc21 [Compound 2.06, 6-N-[(1-aminocyclopropyl)methyl]-1-methyl-4-N-[3-(trifluoromethyl)phenyl]pyrazolo[3,4-d]pyrimidine-4,6-diamine] | 2210 nM | 509 nM |  | 
Cn1ncc2c(NC3CC(F)(F)C3)nc(NCC(N)c3cccnc3)nc21 (stereo not drawn) [Compound 5.25, N6-[2-amino-2-(3-pyridyl)ethyl]-N4-(3,3-difluorocyclobutyl)-1-methyl-pyrazolo[3,4-d]pyrimidine-4,6-diamine] | 5580 nM | 1810 nM |  | 
Cn1ncc2c(Nc3ccc(Cl)cc3)nc(NC[C@@H](N)c3ccccc3)nc21 [Compound 4.31, N6-[(2S)-2-amino-2-phenyl-ethyl]-N4-(4-chlorophenyl)-1-methyl-pyrazolo[3,4-d]pyrimidine-4,6-diamine] | 60000 nM | 7390 nM |  | 
Cn1ncc2c(NC3CC(C)(C)C3)nc(NC[C@H](N)c3ccccc3)nc21 [Compound 4.96, N6-[(2R)-2-amino-2-phenyl-ethyl]-N4-(3,3-dimethylcyclobutyl)-1-methyl-pyrazolo[3,4-d]pyrimidine-4,6-diamine] | 21.8 nM | 14 nM |  | 
Cn1ncc2c(NCC(F)F)nc(NC[C@H](N)c3ccccc3)nc21 [Compound 4.73, N6-[(2R)-2-amino-2-phenyl-ethyl]-N4-(2,2-difluoroethyl)-1-methyl-pyrazolo[3,4-d]pyrimidine-4,6-diamine] | 412 nM | 528 nM |  | 
Cn1ncc2c(NC3CC(CO)(CCl)C3)nc(NCC(N)c3ccccc3)nc21 (stereo not drawn) [Compound 4.81, [3-[[6-[(2-amino-2-phenyl-ethyl)amino]-1-methyl-pyrazolo[3,4-d]pyrimidin-4-yl]amino]-1-(chloromethyl)cyclobutyl]methanol] | 625 nM | 583 nM |  | 
Cn1ncc2c(NCc3ccc(Br)cc3)nc(NCC(N)c3ccccc3)nc21 (stereo not drawn) [Compound 4.07, 6-N-(2-amino-2-phenylethyl)-4-N-[(4-bromophenyl)methyl]-1-methylpyrazolo[3,4-d]pyrimidine-4,6-diamine] | 282 nM | 132 nM |  | 

The remaining lines, values ahead:

IC50 [1, 3] | IC50 [2, 4] | IC50 [1, 5] | IC50 [2, 6] | SMILES
989 nM | 576 nM |  |  | Cn1ncc2c(N[C@H]3C[C@@H](F)C3)nc(NC[C@H](N)c3ccccc3)nc21 [Compound 4.90, N6-[(2R)-2-amino-2-phenyl-ethyl]-N4-(3-fluorocyclobutyl)-1-methyl-pyrazolo[3,4-d]pyrimidine-4,6-diamine]
611 nM | 288 nM |  |  | Cn1ncc2c(NCC3CC(F)C3)nc(NC[C@H](N)c3ccccc3)nc21 (stereo partly drawn) [Compound 4.108, N6-[(2R)-2-amino-2-phenyl-ethyl]-N4-[(3-fluorocyclobutyl)methyl]-1-methyl-pyrazolo[3,4-d]pyrimidine-4,6-diamine]
282 nM | 20.7 nM |  |  | Cn1ncc2c(Nc3ccc(C(F)(F)F)c(F)c3)nc(NCC3(N)CC3)nc21 [Compound 2.03, N6-[(1-aminocyclopropyl)methyl]-N4-[3-fluoro-4-(trifluoromethyl)phenyl]-1-methyl-pyrazolo[3,4-d]pyrimidine-4,6-diamine]
462 nM | 495 nM |  |  | Cn1ncc2c(NC(C)(C)C)nc(NCC(N)c3ccccc3Cl)nc21 (stereo not drawn) [Compound 5.10, N6-[2-amino-2-(2-chlorophenyl)ethyl]-N4-tert-butyl-1-methyl-pyrazolo[3,4-d]pyrimidine-4,6-diamine]
 |  | 4120 nM | 5620 nM | Cn1ncc2c(NCC(F)(F)F)nc(NC[C@@H](N)c3ccccc3)nc21 [Compound 7.07, N6-[(2S)-2-amino-2-phenyl-ethyl]-1-methyl-N4-(2,2,2-trifluoroethyl)pyrazolo[3,4-d]pyrimidine-4,6-diamine]
2470 nM | 424 nM |  |  | Cn1ncc2c(Nc3ccc(C(F)(F)F)nc3)nc(NCC3(N)CC3)nc21 [Compound 2.45, 6-N-[(1-aminocyclopropyl)methyl]-1-methyl-4-N-[6-(trifluoromethyl)pyridin-3-yl]pyrazolo[3,4-d]pyrimidine-4,6-diamine]
2240 nM | 6770 nM |  |  | Cn1ncc2c(NC3(C)CCOCC3)nc(NC[C@H](N)c3ccccc3)nc21 [Compound 4.127, N6-[(2R)-2-amino-2-phenylethyl]-1-methyl-N4-(4-methyloxan-4-yl)-1H-pyrazolo[3,4-d]pyrimidine-4,6-diamine]
38 nM | 64.4 nM |  |  | CC(C)Oc1ccc(Nc2nc(NC[C@H](N)c3ccccc3)nc3c2cnn3C)cc1 [Compound 4.33, N6-[(2R)-2-amino-2-phenyl-ethyl]-N4-(4-isopropoxyphenyl)-1-methyl-pyrazolo[3,4-d]pyrimidine-4,6-diamine]
 |  | 765 nM | 1110 nM | Cn1ncc2c(NCc3ccc(-c4ccccc4)cc3)nc(NCC(C)(C)N)nc21 [Compound 1.28, N6-(2-amino-2-methylpropyl)-N4-({[1,1′-biphenyl]-4-yl}methyl)-1-methyl-1H-pyrazolo[3,4-d]pyrimidine-4,6-diamine]

— patent US20220370453A1 (Storm Therapeutics Ltd, priority 2019, published 2022)
